Measurements published in patent US20240059698A1 (Accutar Biotechnology Inc., priority 2022, published 2024).
Where two headings read alike, the source gives them in different places.

How the values were obtained:
Format in all cases: cell-based
A431 cells = assay: Cell growth inhibition (CellTiter-Glo), A431; settings: Homo sapiens, A-431, 72 h, 3 days
Outline: (§1)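 Readout was CellTiter-Glo luminescence after 3-day compound treatment at 37° C. Cells were seeded at 5000/well the previous night: HCC827 in RPMI/10% FBS, A431 in DMEM/10% FBS.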

[1] = tested on: HCC827-ASV cells (human EGFR exon 20 insertion mutant V769_D770insASV); assay: Cell growth inhibition (CellTiter-Glo), HCC827-ASV; settings: 72 h, read-out: Cell growth inhibition, GI50 (nM) HCC827-ASV
Experimental: Generation of HCC827-SVD, HCC827-ASV, and HCC827-YVMA cell lines. The HCC827-SVD cell line was generated by first transducing HCC827 cells (ATCC) with lentiviral particles expressing codon-optimized human EGFR exon 20 insertion mutant D770_N771insSVD, and then selecting under 5 µg/mL puromycin treatment for a week. The resulting cells were further transduced with lentiviral particles carrying EGFR sgRNA and CAS9 to knockout the endogenous alleles of EGER and then selected under 500 µg/mL hygromycin B treatment for two weeks. The limiting dilution approach was used to subsequently generate the single clone of the HCC827-SVD stable cell line. Endogenous EGFR knockout was confirmed by Sanger sequencing of cell genomic DNA, and expression of exogenous mutant EGFR was verified by Western blot analysis.
HCC827-ASV and HCC827-YVMA cell lines were generated in a similar approach as HCC827-SVD, except that HCC827 cells (ATCC) were first transduced with lentiviral particles expressing codon-optimized human EGFR exon 20 insertion mutant V769_D770insASV and human ERBB2 exon20 insertion mutant A775_G776ins YVMA, respectively.
2. Cell Growth Inhibition for HCC827, HCC827-SVD, HCC827-ASV, HCC827-YVMA, and A431.
HCC827(ATCC), HCC827-SVD, HCC827-ASV, and HCC827-YVMA cells were seeded in 96-well plates at 5000 cells/well in 90 μL of RPMI growth medium containing 10% FBS and 1% Penicillin Streptomycin. A431 (ATCC) cells were seeded in 96-well plates at 5000 cells/well in 90 μL of DMEM growth medium containing 10% FBS and 1% Penicillin Streptomycin. Cells were incubated at 37° C. overnight and then administered with 10 μL 10× test compounds prepared in the growth medium at various concentrations. After administration of the compounds, cells were incubated at 37° C. for 3 days. Before the CellTiter-Glo assay, the plates were equilibrated at room temperature for approximately 30 minutes. 100 ul of CellTiter-Glo reagent (Promega) was added to each well. The plates were then incubated at room temperature for 10 minutes and luminescence was recorded by the EnSight® multimode plate reader (PerkinElmer). Table 7 listed selected compounds in cellular growth assay.

[2] = tested on: HCC827-YVMA cells (human ERBB2 exon20 insertion mutant A775_G776ins YVMA); assay: Cell growth inhibition (CellTiter-Glo), HCC827-YVMA; settings: 72 h, read-out: Cell growth inhibition, GI50 (nM) HCC827-YVMA
Outline: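 Growth in RPMI with 10% FBS was measured by CellTiter-Glo luminescence after 3 days at 37 °C with test compounds across a concentration range. The single-clone HCC827 lines carry a lentiviral YVMA (ERBB2) or ASV (EGFR) exon 20 insertion, with endogenous EGFR removed via sgRNA/Cas9.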

HCC827 cells = assay: Cell growth inhibition (CellTiter-Glo), HCC827; settings: Homo sapiens, 72 h, 3 days
Outline: as §1

[3] = tested on: HCC827-SVD cells (human EGFR exon 20 insertion mutant D770_N771insSVD); assay: Cell growth inhibition (CellTiter-Glo), HCC827-SVD; settings: 72 h, 3 days
Outline: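 Growth read by CellTiter-Glo luminescence after 3-day compound exposure at 37 °C. Engineered clonal HCC827 line (native EGFR deleted by CRISPR, mutant EGFR re-expressed) plated at 5000 cells/well in 10% FBS RPMI the night before dosing.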

[4] = HCC827-ASV cells, 3 days, CellTiter-Glo
[5] = HCC827-YVMA cells, 3 days, CellTiter-Glo

Compound	GI50 (A431 cells) [nM]	GI50 [1, 4] [nM]	GI50 [2, 5] [nM]	GI50 (HCC827 cells) [nM]	GI50 [3] [nM]	GI50 [1] [nM]	GI50 [2] [nM]
C=CC(=O)N1CCC(c2c[nH]c3ncnc(Nc4ccc(Oc5ccnc(Nc6ccccn6)c5)cc4F)c23)CC1 [Compound 135, 1-(4-(4-((2-fluoro-4-((2-(pyridin-2-ylamino)pyridin-4-yl)oxy)phenyl)amino)-7H-pyrrolo[2,3-d]pyrimidin-5-yl)piperidin-1-yl)prop-2-en-1-one]	200 to 1000	< 50	< 50	> 1000	< 50		
C=CC(=O)N1CCC(c2csc3ncnc(Nc4ccc(OCc5ccccn5)c(Cl)c4)c23)CC1 [Compound 160, 1-[4-[4-[3-chloro-4-(2-pyridylmethoxy)anilino]thieno[2,3-d]pyrimidin-5-yl]-1-piperidyl]prop-2-en-1-one]	< 50	< 50	< 50	< 50	< 50		
C=CC(=O)N1CCC(c2c[nH]c3ncnc(Nc4ccc(OCc5ccccn5)c(Cl)c4)c23)CC1 [Compound 156, 1-(4-(4-((3-chloro-4-(pyridin-2-ylmethoxy)phenyl)amino)-7H-pyrrolo[2,3-d]pyrimidin-5-yl)piperidin-1-yl)prop-2-en-1-one]	< 50	< 50	< 50	< 50	< 50		
C=CC(=O)N1CCC(c2c[nH]c3ncnc(Nc4ccc(Oc5ccnc(NC(=O)C6CCCC6)c5)cc4F)c23)CC1 [Compound 90, N-(4-(4-((5-(1-acryloylpiperidin-4-yl)-7H-pyrrolo[2,3-d]pyrimidin-4-yl)amino)-3-fluorophenoxy)pyridin-2-yl)cyclopentanecarboxamide]	200 to 1000	< 50	< 50	50 to 200	50 to 200		
C=CC(=O)N1CCC(c2csc3ncnc(Nc4ccc(Oc5ccnc(N6C[C@@H](C)O[C@@H](C)C6)c5)cc4F)c23)CC1 [Compound 159, 1-(4-(4-((4-((2-((2R,6S)-2,6-dimethylmorpholino)pyridin-4-yl)oxy)-2-fluorophenyl)amino)thieno[2,3-d]pyrimidin-5-yl)piperidin-1-yl)prop-2-en-1-one]	> 1000	200 to 1000	200 to 1000	> 1000	200 to 1000		
C=CC(=O)N1CC=C(c2c[nH]c3ncnc(Nc4ccc(OCc5ccccn5)c(Cl)c4)c23)CC1 [Compound 154, 1-(4-(4-((3-chloro-4-(pyridin-2-ylmethoxy)phenyl)amino)-7H-pyrrolo[2,3-d]pyrimidin-5-yl)-3,6-dihydropyridin-1(2H)-yl)prop-2-en-1-one]	200 to 1000	< 50	< 50	< 50	< 50		
C=CC(=O)N1CCC(c2c[nH]c3ncnc(Nc4ccc(OCc5cc6sccc6cn5)c(Cl)c4)c23)CC1 [Compound 224, 1-(4-(4-((3-chloro-4-(thieno[3,2-c]pyridin-6-ylmethoxy)phenyl)amino)-7H-pyrrolo[2,3-d]pyrimidin-5-yl)piperidin-1-yl)prop-2-en-1-one]					< 50	< 50	< 50
C=CC(=O)N1[C@@H]2CC[C@H]1CC(c1c[nH]c3ncnc(Nc4ccc(OCc5ccccn5)c(Cl)c4)c13)C2 (some centres unmarked) [Compound 230]		< 50	< 50		< 50		

Now from value to compound, other results behind:

GI50 (A431 cells) [nM]	GI50 [1, 4] [nM]	GI50 [2, 5] [nM]	GI50 (HCC827 cells) [nM]	GI50 [3] [nM]	Compound	GI50 [1] [nM]	GI50 [2] [nM]
> 1000	200 to 1000	50 to 200	> 1000	50 to 200	C=CC(=O)N1CCC(c2ccn3ncnc(Nc4ccc(Oc5ccnc(N6CCC[C@@H](OC)C6)c5)cc4F)c23)CC1 [Compound 202, (R)-1-(4-(4-((2-fluoro-4-((2-(3-methoxypiperidin-1-yl)pyridin-4-yl)oxy)phenyl)amino)pyrrolo[2,1-f][1,2,4]triazin-5-yl)piperidin-1-yl)prop-2-en-1-one]		
> 1000	< 50	< 50		< 50	C=CC(=O)N1CCC(c2c[nH]c3ncnc(Nc4ccc(Oc5ccnc(NC(=O)C6CC6)c5)cc4F)c23)CC1 [Compound 232, N-(4-(4-((5-(1-acryloylpiperidin-4-yl)-7H-pyrrolo[2,3-d]pyrimidin-4-yl)amino)-3-fluorophenoxy)pyridin-2-yl)cyclopropanecarboxamide]		
> 1000	200 to 1000	50 to 200	> 1000	200 to 1000	C=CC(=O)N1CCC(c2n[nH]c3ncnc(Nc4ccc(Oc5ccnc(N6CC(O)(C(F)(F)F)C6)c5)cc4F)c23)CC1 [Compound 177, 1-(4-(4-((2-fluoro-4-((2-(3-hydroxy-3-(trifluoromethyl)azetidin-1-yl)pyridin-4-yl)oxy)phenyl)amino)-1H-pyrazolo[3,4-d]pyrimidin-3-yl)piperidin-1-yl)prop-2-en-1-one]		
200 to 1000	200 to 1000	50 to 200	200 to 1000	200 to 1000	C=CC(=O)N1CCC(c2n[nH]c3ncnc(Nc4ccc(Oc5ccn(Cc6cc(C)ccn6)n5)cc4F)c23)CC1 [Compound 164, 1-(4-(4-((2-fluoro-4-((1-((4-methylpyridin-2-yl)methyl)-1H-pyrazol-3-yl)oxy)phenyl)amino)-1H-pyrazolo[3,4-d]pyrimidin-3-yl)piperidin-1-yl)prop-2-en-1-one]		
< 50	< 50	< 50	< 50	< 50	C=CC(=O)N1CCC(c2n[nH]c3ncnc(Nc4ccc(OCc5ccccn5)c(Cl)c4)c23)CC1 [Compound 166, 1-(4-(4-((3-chloro-4-(pyridin-2-ylmethoxy)phenyl)amino)-1H-pyrazolo[3,4-d]pyrimidin-3-yl)piperidin-1-yl)prop-2-en-1-one]		
> 1000	> 1000	200 to 1000	> 1000	> 1000	C=CC(=O)N1CCC(c2ccn3ncnc(Nc4ccc(Oc5ccnc(N6CCN(C)CC6)c5)cc4F)c23)CC1 [Compound 201, 1-(4-(4-((2-fluoro-4-((2-(4-methylpiperazin-1-yl)pyridin-4-yl)oxy)phenyl)amino)pyrrolo[2,1-f][1,2,4]triazin-5-yl)piperidin-1-yl)prop-2-en-1-one]		
	< 50	< 50		< 50	C=CC(=O)N1CCC(c2c[nH]c3ncnc(Nc4cc(Cl)c(OCc5ccccn5)cc4Cl)c23)CC1 [Compound 222, 1-[4-[4-[2,5-dichloro-4-(2-pyridylmethoxy)anilino]-7H-pyrrolo[2,3-d]pyrimidin-5-yl]-1-piperidyl]prop-2-en-1-one]		
	< 50	< 50		< 50	C=CC(=O)N1CCC(c2c[nH]c3ncnc(Nc4ccc(OCc5ccsn5)c(Cl)c4)c23)CC1 [Compound 229, 1-(4-(4-((3-chloro-4-(isothiazol-3-ylmethoxy)phenyl)amino)-7H-pyrrolo[2,3-d]pyrimidin-5-yl)piperidin-1-yl)prop-2-en-1-one]		
	< 50	< 50		< 50	C=CC(=O)N1CCC(c2c[nH]c3ncnc(Nc4ccc(O[C@H](C)c5cscn5)c(Cl)c4)c23)CC1 [Compound 218, (R)-1-(4-(4-((3-chloro-4-(1-(thiazol-4-yl)ethoxy)phenyl)amino)-7H-pyrrolo[2,3-d]pyrimidin-5-yl)piperidin-1-yl)prop-2-en-1-one]		
